Assay results from article PMC11876601 (Molecular Systems Biology, 2025).
Where two headings read alike, the source gives them in different places.

Key:
Assay in all cases: cells
[1] = tested on: MiaPaCa-2; parameters: Viability of PDAC cell lines, ATPlite luminescence, 11-dose single-agent curve fit
Procedure: (§1) Afterward, small amounts were transferred to 384-well intermediate plates (Greiner Bio-One GmbH, Germany). […] For drug combination screening, 1000 to 5000 cells were seeded into 384-well plates (CulturPlate™, Perkin Elmer, MA, USA) using a Multidrop™ Combi Reagent Dispenser (Thermo Scientific, MA, USA) in 50 µl medium per well 24 h prior to drug treatment (seeding densities see Appendix Table S1). […] The final DMSO concentration in each well was 0.2%. […] Eight wells per plate without library drug served as negative controls, and sixteen wells per plate containing 5 µM Staurosporine served as positive controls. […] Next, we analyzed the drug sensitivity of immortalized duct cell line HPDE to detect effects unrelated to pancreatic cancer.

[2] = tested on: Dan-G; parameters: Viability of PDAC cell lines, ATPlite luminescence, 11-dose single-agent curve fit; settings: 72 h
Procedure: as §1

[3] = tested on: HuP-T4; parameters: Viability of PDAC cell lines, ATPlite luminescence, 11-dose single-agent curve fit
Procedure: as §1

[4] = tested on: Colo-357; parameters: Viability of PDAC cell lines, ATPlite luminescence, 11-dose single-agent curve fit
Procedure: as §1

[5] = tested on: BxPC-3; parameters: Viability of PDAC cell lines, ATPlite luminescence, 11-dose single-agent curve fit
Procedure: as §1

[6] = tested on: Suit2-07; parameters: Viability of PDAC cell lines, ATPlite luminescence, 11-dose single-agent curve fit; settings: 72 h
Procedure: as §1

[7] = tested on: PSN-1; parameters: Viability of PDAC cell lines, ATPlite luminescence, 11-dose single-agent curve fit
Procedure: as §1

[8] = tested on: FAMPAC; parameters: Viability of PDAC cell lines, ATPlite luminescence, 11-dose single-agent curve fit; settings: 72 h
Procedure: as §1

[9] = tested on: AsPC-1; parameters: Viability of PDAC cell lines, ATPlite luminescence, 11-dose single-agent curve fit
Procedure: as §1

[10] = tested on: HPDE; parameters: Viability of PDAC cell lines, ATPlite luminescence, 11-dose single-agent curve fit; settings: 72 h
Procedure: as §1

[11] = tested on: PANC-1; parameters: Viability of PDAC cell lines, ATPlite luminescence, 11-dose single-agent curve fit
Procedure: as §1

[12] = tested on: Capan-1; parameters: Viability of PDAC cell lines, ATPlite luminescence, 11-dose single-agent curve fit
Procedure: as §1

[13] = tested on: PaTu-8988-T; parameters: Viability of PDAC cell lines, ATPlite luminescence, 11-dose single-agent curve fit; settings: 72 h
Procedure: as §1

[14] = tested on: MiaPaCa-2; parameters: ATPlite luminescence viability of PDAC cell lines, 11-dose single-agent curves, 4-parameter fit; settings: Homo sapiens, MIA PaCa-2, 72 h, read-out: EC50 [nM]
Procedure: as §1

[15] = tested on: BxPC-3; parameters: ATPlite luminescence viability of PDAC cell lines, 11-dose single-agent curves, 4-parameter fit; settings: Homo sapiens, BXPC-3, 72 h, read-out: EC50 [nM]
Procedure: as §1

[16] = tested on: Suit2-07; parameters: ATPlite luminescence viability of PDAC cell lines, 11-dose single-agent curves, 4-parameter fit; settings: 72 h, read-out: EC50 [nM]
Procedure: as §1

[17] = tested on: FAMPAC; parameters: ATPlite luminescence viability of PDAC cell lines, 11-dose single-agent curves, 4-parameter fit; settings: 72 h, read-out: EC50 [nM]
Procedure: as §1

[18] = tested on: PSN-1; parameters: ATPlite luminescence viability of PDAC cell lines, 11-dose single-agent curves, 4-parameter fit; settings: Homo sapiens, PSN1, 72 h, read-out: EC50 [nM]
Procedure: as §1

[19] = tested on: Dan-G; parameters: ATPlite luminescence viability of PDAC cell lines, 11-dose single-agent curves, 4-parameter fit; settings: 72 h, read-out: EC50 [nM]
Procedure: as §1

[20] = Homo sapiens, MIA PaCa-2, 72 h, read-out: EC50 [nM]
[21] = Homo sapiens, HuP-T4, 72 h, read-out: EC50 [nM]
[22] = Homo sapiens, COLO357, 72 h, read-out: EC50 [nM]
[23] = Homo sapiens, BXPC-3, 72 h, read-out: EC50 [nM]
[24] = Homo sapiens, PSN1, 72 h, read-out: EC50 [nM]
[25] = Homo sapiens, ASPC1, 72 h, read-out: EC50 [nM]
[26] = Homo sapiens, PANC-1, 72 h, read-out: EC50 [nM]
[27] = Homo sapiens, CAPAN-1, 72 h, read-out: EC50 [nM]
[28] = Homo sapiens, PaTu 8988t, read-out: EC50 [nM]

Row | SMILES | EC50 [1, 20] | EC50 ([2]; read-out: EC50 [nM]) | EC50 [3, 21] | EC50 [4, 22] | EC50 [5, 23] | EC50 ([6]; read-out: EC50 [nM]) | EC50 [7, 24] | EC50 ([8]; read-out: EC50 [nM]) | EC50 [9, 25] | EC50 ([10]; HPDE, read-out: EC50 [nM]) | EC50 [11, 26] | EC50 [12, 27] | EC50 [13, 28] | also measured
1 | Cc1cn(-c2cc(NC(=O)c3ccc(C)c(Nc4nccc(-c5cnccn5)n4)c3)cc(C(F)(F)F)c2)cn1 [Radotinib] | 3580 nM | 5910 nM | > 10000 nM | 196 nM | 1780 nM | 99.5 nM | 11 nM | 4270 nM | 1050 nM | 6.45 nM | 260 nM | 4010 nM | 1390 nM | –
2 | [2H]C([2H])([2H])NC(=O)c1nnc(NC(=O)C2CC2)cc1Nc1cccc(-c2ncn(C)n2)c1OC [BMS986165] | 7220 nM | 3350 nM | 4610 nM | 9560 nM | > 10000 nM | > 10000 nM | 7570 nM | > 10000 nM | 4870 nM | 2330 nM | 2070 nM | – | > 10000 nM | –
3 | O=C(Nc1cnn2ccc(N3CCC[C@@H]3c3cc(F)ccc3F)nc12)N1CC[C@H](O)C1 [Larotrectinib] | – | – | – | – | – | – | – | – | – | – | – | – | – | EC50 ([1]; 72 h, read-out: EC50): 53.6 nM; EC50 ([2]; read-out: EC50): 451 nM; EC50 ([3]; 72 h, read-out: EC50): 148 nM; EC50 ([4]; 72 h, read-out: EC50): 34.9 nM; EC50 ([5]; 72 h, read-out: EC50): 357 nM; EC50 ([6]; read-out: EC50): 196 nM; EC50 ([7]; 72 h, read-out: EC50): 270 nM; EC50 ([8]; read-out: EC50): 842 nM; EC50 ([9]; 72 h, read-out: EC50): 53.5 nM; EC50 ([10]; read-out: EC50): 459 nM; EC50 ([11]; 72 h, read-out: EC50): 211 nM; EC50 ([12]; 72 h, read-out: EC50): 3880 nM; EC50 ([13]; read-out: EC50): 678 nM
4 | Cc1[nH]c(/C=C2\C(=O)Nc3ccccc32)c(C)c1CCC(=O)O [Orantinib] | 47 nM | 487 nM | 2430 nM | 2.98 nM | 1040 nM | 2.77 nM | 366 nM | 0.01 nM | 145 nM | 61.9 nM | 568 nM | 17.6 nM | 135 nM | –
5 | CCN1C(=O)N(c2c(F)c(OC)cc(OC)c2F)Cc2cnc3[nH]c(CN4CCOCC4)cc3c21 [Pemigatinib] | – | 2970 nM | 3.44 nM | 2990 nM | – | – | 2710 nM | – | 3480 nM | 3380 nM | 442 nM | 2030 nM | 3280 nM | EC50 [14]: > 10000 nM; EC50 [15]: 1370 nM; EC50 [16]: 3040 nM; EC50 [17]: 3320 nM
6 | N#CC[C@H](C1CCCC1)n1cc(-c2ncnc3[nH]ccc23)cn1 [Ruxolitinib] | 1740 nM | 117 nM | 212 nM | 8280 nM | 6970 nM | 1750 nM | 2210 nM | 9910 nM | 23.6 nM | > 10000 nM | 1370 nM | 0.51 nM | 13.4 nM | –
7 | Cc1ccc(F)c(NC(=O)Nc2ccc(-c3cccc4[nH]nc(N)c34)cc2)c1 [Linifanib] | 1830 nM | 27.9 nM | 1100 nM | 131 nM | 792 nM | 864 nM | > 10000 nM | 3290 nM | 32.7 nM | 311 nM | 1420 nM | 47 nM | – | –
8 | C[C@H]1Oc2cc(cnc2N)-c2c(nn(C)c2C#N)CN(C)C(=O)c2ccc(F)cc21 [Lorlatinib] | 2650 nM | 3210 nM | 1320 nM | 6220 nM | 1270 nM | 3240 nM | 554 nM | 207 nM | 4980 nM | 999 nM | 8920 nM | 1070 nM | 5400 nM | –
9 | CCCS(=O)(=O)N[C@H]1C[C@@H](N(C)c2ncnc3[nH]ccc23)C1 [Abrocitinib] | 2760 nM | > 10000 nM | 643 nM | 9870 nM | 275 nM | 901 nM | > 10000 nM | 2.68 nM | 3850 nM | 5620 nM | 140 nM | 37.4 nM | 3800 nM | –
10 | CCc1cc2c(cc1N1CCC(N3CCOCC3)CC1)C(C)(C)c1[nH]c3cc(C#N)ccc3c1C2=O [Alectinib] | 71.8 nM | > 10000 nM | 680 nM | 220 nM | 99.3 nM | 2390 nM | 0.05 nM | 9090 nM | – | 2130 nM | 80.3 nM | – | 28 nM | –
11 | O=C(Nc1nc2cccc(-c3ccc(CN4CCS(=O)(=O)CC4)cc3)n2n1)C1CC1 [Filgotinib] | – | 6150 nM | 172 nM | 3490 nM | 9420 nM | 2150 nM | – | – | 305 nM | 1990 nM | 43.9 nM | 5940 nM | > 10000 nM | EC50 [14]: > 10000 nM; EC50 [18]: 7590 nM; EC50 [17]: 8160 nM
12 | CNC(=O)c1ccc(Nc2ncc(C(F)(F)F)c(NCc3nccnc3N(C)S(C)(=O)=O)n2)cc1 [Defactinib] | – | 7590 nM | 441 nM | 3820 nM | – | > 10000 nM | – | – | 3350 nM | 3690 nM | 142 nM | 3400 nM | 9750 nM | EC50 [14]: 4660 nM; EC50 [15]: > 10000 nM; EC50 [18]: 4590 nM; EC50 [17]: > 10000 nM
13 | Cc1cc2c(F)c(Oc3ncnn4cc(OC[C@@H](C)O)c(C)c34)ccc2[nH]1 [Brivanib] | 7100 nM | > 10000 nM | 5470 nM | 8830 nM | 3.14 nM | > 10000 nM | > 10000 nM | – | 156 nM | > 10000 nM | > 10000 nM | > 10000 nM | 9580 nM | –
14 | CN1CC[C@@H](NC(=O)Nc2ccc(C#N)cc2)C[C@@H]1c1nc2ccccc2[nH]1 [Glasdegib] | > 10000 nM | 176 nM | 208 nM | 352 nM | 164 nM | 523 nM | 846 nM | 1230 nM | 28.4 nM | 110 nM | 2580 nM | – | 0.5 nM | –
15 | C[C@H](Nc1ncnc2nc[nH]c12)c1cc2cccc(Cl)c2c(=O)n1-c1ccccc1 [Duvelisib] | 2130 nM | – | 109 nM | 3070 nM | 2870 nM | > 10000 nM | 883 nM | 4250 nM | > 10000 nM | 6900 nM | 1590 nM | 4650 nM | > 10000 nM | EC50 [19]: 5640 nM
16 | C=CC(=O)N1CCC(CNc2ncnc(N)c2-c2ccc(Oc3ccccc3)cc2)CC1 [Evobrutinib] | 4490 nM | 493 nM | – | 31.5 nM | 2910 nM | 1.96 nM | 571 nM | – | 1070 nM | 2.61 nM | > 10000 nM | > 10000 nM | 213 nM | –
